Data published in patent US11464802B2, “3-substituted piperidine compounds for Cbl-b inhibition, and use thereof” (Nurix Therapeutics, Inc., priority 2019, dated 2022).

How the values were obtained:
[1] = tested on: primary human total T-cells; test: Primary human total T-cell activation: CD25 surface staining, Biological Example 9; format: cell-based; conditions: 48 hours, fold change over baseline; for fold induction at 0.3 µM: inhibitor 0.3 μM; for fold induction at 0.3 µM / fold induction at 3 µM: Table 9-1; for fold induction at 1 µM: inhibitor 1 μM; for fold induction at 3 µM: inhibitor 3 μM
TC-1 cell tumor = test: Cbl-b inhibitor in combination with HPV16 E7 cancer vaccine in mice bearing syngeneic TC-1 tumor, Biological Example 11; format: in vivo, C57BL/6 mice; conditions: HPV16 E7 vaccine SC + Compound No. 53 180 mg/kg PO BID; TILs on day 10; percent increase relative to vaccine without Cbl-b inhibitor
Experimental: In brief, the combination therapy was tested in C57BL/6 mice bearing a syngeneic TC-1 cell tumor. TC-1 cells were derived from primary murine lung cells, which had been transfected with human papillomavirus strain 16 (HPV16) early proteins 6 and 7 (E6 and E7) and an activated human c-Ha-ras oncogene (Lin et al., Cancer Research, 56: 21-26, 1996). Either 2.5×10^4 (first study) or 5.0×10^4 (second study) TC-1 cells (obtained from Johns Hopkins University) were injected subcutaneously into the mid flank of each mouse. Tumors were allowed to grow to 50-100 mm^3 at which time the animals were randomized and treatment was begun (day 0).
The HPV16 E7 cancer vaccine (Shrimali et al., Cancer Immunol Res, 5: 755-766, 2017) included 100 μg of a synthetic peptide with the amino acid sequence of a CTL epitope of residues 49-57 of E7 ([…] set forth as SEQ ID NO:2), mixed with 20 μg of a synthetic peptide with the amino acid sequence of a Th epitope known as PADRE (aK-Cha-[…]a set for as SEQ ID NO:3, where “a” is D alanine and “Cha” is L-cyclohexylalanine) and 20 μg of a Quil-A® adjuvant marketed by Brenntag Biosector A/S, which contains purified quillaja saponins. The HPV16 E7 vaccine or Dulbecco's phosphate-buffered saline (DPBS) was administered subcutaneously (SC) on days 2 and 9 (=day 16 and day 23 post TC-1 injection). The Cbl-b inhibitor was dissolved in a suitable formulation and administered at a suitable dose level and frequency as informed by prior pharmacokinetic and tolerability studies. In initial studies, the Cbl-b inhibitor (Compound No. 53) in a suitable vehicle, or the vehicle, was administered orally (PO) at a dose of 180 mg/kg twice per day (BID) beginning on day 0 (=day 14 post TC-1 injection). In further studies, a Cbl-b inhibitor formulation was administered orally (PO) or parenterally (e.g., IV, IP, SC, or intratumorally at one to three injection sites per tumor). In addition to the test group of mice who received the combination therapy (the Cbl-b inhibitor formulation plus the HPV16 E7 vaccine), the study included control groups of mice who received: the vehicle formulation plus DPBS, the Cbl-b inhibitor formulation plus DPBS, or the vehicle formulation plus the HPV16 E7 vaccine.
Tumor size was recorded twice a week starting on day 0 (day 14 post TC-1 injection) and continued through duration of dosing until humane endpoints were reached between day 33 and day 42 (=between day 47 and day 56 post TC-1 injection). The level of response was evaluated by comparing tumor growth in the test mice versus the control mice (10 mice per group). In addition, the level of immune activation was assessed by collecting tumors for analysis of tumor infiltrating lymphocytes (TILs) on day 10 (=day 24 post TC-1 injection) in test and control mice (6 mice per group). TILs were processed for flow cytometric analysis using standard methods to determine antigen specificity, expression of cell type-specific markers, and expression of activation markers such as granzyme B, CD25, CD69, PD-1, and LAG3. In further experiments, PBMCs and/or splenocytes were also collected and processed. Augmentation of the anti-tumor immune response by the combination therapy was assessed by comparing the relative percentage of total or E7-specific (tumor antigen-specific) CD8+ T cells, and the relative levels of expression of activation markers on immune cells in mice of the test and study groups.

Cbl-b [2] = biological target: T1, Cbl-b (Homo sapiens (Human), UniProt Q13191); test: Cbl-b displacement assay (Cbl-b inhibition assay), Biological Example 12; format: binding; conditions: Table 12-1
In short: (§1)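 Biotinylated Avitag-Cbl-b (residues 36-427) at 0.5 nM ("High") or 0.125 nM ("Low") final was preincubated 1 h at room temperature with compound (1% DMSO) in 20 mM HEPES pH 7.5, 150 mM NaCl, 0.01% Triton X-100, 0.01% BSA, 0.5 mM TCEP. Then 150 nM BODIPY FL inhibitor probe (~EC40) plus 2 nM streptavidin-terbium, 1 h; TR-FRET 520/620 read, IC50 derived.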

Cbl-b [3] = biological target: T1, Cbl-b; test: Cbl-b displacement assay (Cbl-b inhibition assay), Biological Example 8; format: binding; conditions: Table 8-1
In short: as §1

[4] = tested on: primary human total T-cells; test: Primary human total T-cell activation: IL-2 secretion, Biological Example 13; format: cell-based; conditions: 48 hours, fold change over baseline; for fold induction at 0.3 µM: inhibitor 0.3 μM; for fold induction at 0.3 µM / fold induction at 3 µM: Table 13-1; for fold induction at 1 µM: inhibitor 1 μM; for fold induction at 3 µM: inhibitor 3 μM
[5] = tested on: primary human total T-cells; test: Primary human total T-cell activation: CD25 surface staining, Biological Example 13; format: cell-based; conditions: 48 hours, fold change over baseline; for fold induction at 0.3 µM: inhibitor 0.3 μM; for fold induction at 0.3 µM / fold induction at 3 µM: Table 13-1; for fold induction at 1 µM: inhibitor 1 μM; for fold induction at 3 µM: inhibitor 3 μM
[6] = tested on: primary human total T-cells; test: Primary human total T-cell activation: IL-2 secretion, Biological Example 9; format: cell-based; conditions: 48 hours, fold change over baseline; for fold induction at 0.3 µM: inhibitor 0.3 μM; for fold induction at 0.3 µM / fold induction at 3 µM: Table 9-1; for fold induction at 1 µM: inhibitor 1 μM; for fold induction at 3 µM: inhibitor 3 μM
[7] = tested on: primary human total T-cells; test: Primary human total T-cell activation: IL-2 secretion, Biological Example 2; format: cell-based; conditions: 48 hours, fold change over baseline; for fold induction at 1 µM: inhibitor 1 μM
[8] = tested on: primary human total T-cells; test: Primary human total T-cell activation: CD25 surface staining, Biological Example 2; format: cell-based; conditions: 48 hours, fold change over baseline; for fold induction at 1 µM: inhibitor 1 μM
Cbl-b [9] = biological target: T1, Cbl-b; test: Cbl-b displacement assay (Cbl-b inhibition assay), TR-FRET probe displacement, Biological Example 1; format: binding
In short: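 N-terminally Avitagged, biotinylated truncated Cbl-b (0.5 nM "High" or 0.125 nM "Low", final) pre-incubated 1 h at room temperature with compound (1% DMSO) in HEPES pH 7.5 buffer. Then 150 nM BODIPY FL probe (~EC40) plus 2 nM streptavidin-terbium for 1 h; TR-FRET read at 520/620 nm.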

[10] = anti-CD3/anti-CD28 co-stimulation
[11] = anti-CD3/anti-CD28 co-stimulation, Table 9-1, read-out: CD25 staining CD3/CD28 1 μM
[12] = anti-CD3 alone, Table 9-1, read-out: CD25 staining CD3 1 μM
[13] = 0.125 nM Cbl-b final concentration (Low), read-out: Cbl-b IC50 (Low)
[14] = anti-CD3/anti-CD28 co-stimulation, Table 13-1, read-out: IL-2 secretion CD3/CD28 1 μM
[15] = anti-CD3 alone, Table 13-1, read-out: IL-2 secretion CD3 1 μM
[16] = anti-CD3/anti-CD28 co-stimulation, Table 13-1, read-out: CD25 staining CD3/CD28 1 μM
[17] = anti-CD3 alone, Table 13-1, read-out: CD25 staining CD3 1 μM
[18] = anti-CD3/anti-CD28 co-stimulation, Table 9-1, read-out: IL-2 secretion CD3/CD28 1 μM
[19] = anti-CD3 alone, Table 9-1, read-out: IL-2 secretion CD3 1 μM
[20] = anti-CD3/anti-CD28 co-stimulation, inhibitor 0.3 μM
[21] = 0.5 nM Cbl-b final concentration (High), read-out: Cbl-b IC50 (High)

T1 sequence (Q13191 36-427): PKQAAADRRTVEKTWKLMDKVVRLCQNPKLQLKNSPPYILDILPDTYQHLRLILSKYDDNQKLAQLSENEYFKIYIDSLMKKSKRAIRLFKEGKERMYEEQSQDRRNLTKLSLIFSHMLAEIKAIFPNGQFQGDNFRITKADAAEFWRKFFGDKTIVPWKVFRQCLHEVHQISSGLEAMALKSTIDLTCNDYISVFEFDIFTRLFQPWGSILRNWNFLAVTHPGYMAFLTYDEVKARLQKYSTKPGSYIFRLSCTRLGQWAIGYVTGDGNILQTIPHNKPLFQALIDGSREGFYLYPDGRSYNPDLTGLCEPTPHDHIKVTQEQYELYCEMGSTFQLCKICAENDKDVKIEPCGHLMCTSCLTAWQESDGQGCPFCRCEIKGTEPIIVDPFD

SMILES	fold induction at 0.3 µM [1, 10]	fold induction at 1 µM [1, 11]	fold induction at 1 µM [1, 12]	fold induction at 3 µM ([1]; anti-CD3 alone)	fold induction at 0.3 µM [4, 10]	fold induction at 1 µM [4, 14]	fold induction at 1 µM [4, 15]	fold induction at 3 µM ([4]; anti-CD3 alone)	fold induction at 0.3 µM [5, 10]	fold induction at 1 µM [5, 16]	fold induction at 1 µM [5, 17]	fold induction at 3 µM ([5]; anti-CD3 alone)	fold induction at 0.3 µM [6, 10]	fold induction at 1 µM [6, 18]	fold induction at 1 µM [6, 19]	fold induction at 3 µM ([6]; anti-CD3 alone)	also measured
Cc1cc(C(=O)Nc2cccc(C3(Cc4nncn4C)COC3)c2)nc(C2CC2)n1 [Compound 53]	> 1.39	> 1.39	> 1.14	> 1.14	< 10	11 to 15	0.34 to 0.66	0.34 to 0.66	> 1.39	> 1.39	> 1.14	> 1.14	< 10	10 to 15	0.34 to 0.66	0.34 to 0.66	Mean increase in CD8+ T cells in TILs: % E7 positive T cells (TC-1 cell tumor): 33.7%; Mean increase in CD8+ T cells in TILs: % Granzyme positive (E7+ T cells) (TC-1 cell tumor): 7.86%; Mean increase in CD8+ T cells in TILs: % Granzyme positive (E7− T cells) (TC-1 cell tumor): 4.12%; Mean increase in CD8+ T cells in TILs: % LAG3 positive (E7+ T cells) (TC-1 cell tumor): 13.49%; Mean increase in CD8+ T cells in TILs: % LAG3 positive (E7− cells) (TC-1 cell tumor): 0.96%; Mean increase in CD8+ T cells in TILs: % PD1 positive (E7+ T cells) (TC-1 cell tumor): 14.97%; Mean increase in CD8+ T cells in TILs: % PD1 positive (E7− T cells) (TC-1 cell tumor): 20.23%; IC50 (Cbl-b [2]; [13]): > 5 nM; IC50 (Cbl-b [3]; [13]): > 5 nM
CCOc1cc(C2(Cc3nncn3C)COC2)cc(N2Cc3c(cc(CN4CCC(F)(F)[C@H](C)C4)cc3C(F)(F)F)C2=O)n1 [Compound 28, (R)-6-((4,4-difluoro-3-methylpiperidin-1-yl)methyl)-2-(6-ethoxy-4-(3-((4-methyl-4H-1,2,4-triazol-3-yl)methyl)oxetan-3-yl)pyridin-2-yl)-4-(trifluoromethyl)isoindolin-1-one]	1.25 to 1.39	< 1.24	1.05 to 1.14	< 1.04	11 to 15	11 to 15	0.34 to 0.66	0.34 to 0.66	1.25 to 1.39	< 1.24	1.05 to 1.14	< 1.04	10 to 15	10 to 15	0.34 to 0.66	0.34 to 0.66	fold induction at 0.3 µM [7, 20]: > 15; fold induction at 1 µM ([7]; anti-CD3/anti-CD28 co-stimulation, read-out: IL-2 secretion CD3/CD28 1 μM): > 15; fold induction at 1 µM ([7]; anti-CD3 alone, read-out: IL-2 secretion CD3 1 μM): 0.34 to 0.66; fold induction at 3 µM ([7]; anti-CD3 alone, inhibitor 3 μM): 0.34 to 0.66; fold induction at 0.3 µM [8, 20]: 1.25 to 1.39; fold induction at 1 µM ([8]; anti-CD3/anti-CD28 co-stimulation, read-out: CD25 staining CD3/CD28 1 μM): < 1.24; fold induction at 1 µM ([8]; anti-CD3 alone, read-out: CD25 staining CD3 1 μM): 1.05 to 1.14; fold induction at 3 µM ([8]; anti-CD3 alone, inhibitor 3 μM): < 1.04; IC50 (Cbl-b [2]; [21]): 1 to 5 nM; IC50 (Cbl-b [3]; [21]): 1 to 5 nM; IC50 (Cbl-b [9]; 0.5 nM Cbl-b final concentration (High), read-out: Cbl-b activity IC50 (High)): 1 to 5 nM; IC50 (Cbl-b [9]; Cbl-b concentration (High or Low) not given, read-out: IC50 values in the Cbl-b inhibition assay of Biological Example 1): 1 to 5 nM
